From article PMC5933747 (PLoS ONE, 2018) come the findings set out here.

Data set [1] concerns the target T1, human NaV1.4 (Homo sapiens, UniProt P35499). The experiment in a line: PatchXpress (PX) automated electrophysiology, human NaV1.4. It is filed as cell-based. Particulars: for IC50: PX platform, at least ten cells, two to three data points per concentration. As for the experimental part:
(§1) Human NaV (hNaV) stably transfected cell lines in HEK293 or CHO backgrounds and cell culture methods were as previously described. hNaV1.1-hNaV1.7 cells were obtained from Eurofins Pharma Discovery Services (St. Charles, MO), and hNaV1.8 cells were generated in house. Whole cell patch clamp, PatchXpress, and IWQ electrophysiology voltage protocols as well as DRG neuron isolation were carried out as previously described. NaV1.7-NaV1.5 chimeras were generated and evaluated in BacMam transduced U2-OS cells on the IWQ platform as previously described.

The subject of data set [2] is mechanically-induced C-fiber action potential firing. Also noted: species or system mouse. As for the experimental part: Male C57BL/6 mice (Charles River Laboratories, San Diego, CA) between 2–3 months old (136 total mice used in study) were housed under standard temperature conditions (22–24°C) and illumination (12-hour light/dark cycle with lights on at 6:30 AM) with ad libitum access to fresh water and food. Mice were euthanized by CO2 followed by cervical dislocation. Experimental procedures for mouse skin-saphenous nerve studies were conducted as previously described with the use of 0.1% BSA (Acros) in the bath solution to decrease non-specific loss of peptide to chamber components [32]. Briefly, the saphenous nerve and skin from the left medial dorsum of the hind paw were dissected and mounted in a custom-made organ bath chamber. The proximal saphenous nerve end was passed through a hole into a separate recording chamber, desheathed and teased into fine fibers for extracellular recording. Mechanical responses were evoked by square force waves using a mechanical stimulator before and following peptide application to a small area of the corium (dermis) side of the skin in a custom-made stainless steel ring. Recording and analysis of C-fiber-mediated action potentials were performed in a blinded manner with respect to peptide treatment. […]

In data set [3] the target is T2, human NaV1.5 (Homo sapiens, UniProt Q14524). The experiment in a line: PatchXpress (PX) automated electrophysiology, human NaV1.5. In kind it is cell-based. The conditions noted are these: for IC50: PX platform, at least ten cells, two to three data points per concentration.
T2 sequence (Q14524 whole entry): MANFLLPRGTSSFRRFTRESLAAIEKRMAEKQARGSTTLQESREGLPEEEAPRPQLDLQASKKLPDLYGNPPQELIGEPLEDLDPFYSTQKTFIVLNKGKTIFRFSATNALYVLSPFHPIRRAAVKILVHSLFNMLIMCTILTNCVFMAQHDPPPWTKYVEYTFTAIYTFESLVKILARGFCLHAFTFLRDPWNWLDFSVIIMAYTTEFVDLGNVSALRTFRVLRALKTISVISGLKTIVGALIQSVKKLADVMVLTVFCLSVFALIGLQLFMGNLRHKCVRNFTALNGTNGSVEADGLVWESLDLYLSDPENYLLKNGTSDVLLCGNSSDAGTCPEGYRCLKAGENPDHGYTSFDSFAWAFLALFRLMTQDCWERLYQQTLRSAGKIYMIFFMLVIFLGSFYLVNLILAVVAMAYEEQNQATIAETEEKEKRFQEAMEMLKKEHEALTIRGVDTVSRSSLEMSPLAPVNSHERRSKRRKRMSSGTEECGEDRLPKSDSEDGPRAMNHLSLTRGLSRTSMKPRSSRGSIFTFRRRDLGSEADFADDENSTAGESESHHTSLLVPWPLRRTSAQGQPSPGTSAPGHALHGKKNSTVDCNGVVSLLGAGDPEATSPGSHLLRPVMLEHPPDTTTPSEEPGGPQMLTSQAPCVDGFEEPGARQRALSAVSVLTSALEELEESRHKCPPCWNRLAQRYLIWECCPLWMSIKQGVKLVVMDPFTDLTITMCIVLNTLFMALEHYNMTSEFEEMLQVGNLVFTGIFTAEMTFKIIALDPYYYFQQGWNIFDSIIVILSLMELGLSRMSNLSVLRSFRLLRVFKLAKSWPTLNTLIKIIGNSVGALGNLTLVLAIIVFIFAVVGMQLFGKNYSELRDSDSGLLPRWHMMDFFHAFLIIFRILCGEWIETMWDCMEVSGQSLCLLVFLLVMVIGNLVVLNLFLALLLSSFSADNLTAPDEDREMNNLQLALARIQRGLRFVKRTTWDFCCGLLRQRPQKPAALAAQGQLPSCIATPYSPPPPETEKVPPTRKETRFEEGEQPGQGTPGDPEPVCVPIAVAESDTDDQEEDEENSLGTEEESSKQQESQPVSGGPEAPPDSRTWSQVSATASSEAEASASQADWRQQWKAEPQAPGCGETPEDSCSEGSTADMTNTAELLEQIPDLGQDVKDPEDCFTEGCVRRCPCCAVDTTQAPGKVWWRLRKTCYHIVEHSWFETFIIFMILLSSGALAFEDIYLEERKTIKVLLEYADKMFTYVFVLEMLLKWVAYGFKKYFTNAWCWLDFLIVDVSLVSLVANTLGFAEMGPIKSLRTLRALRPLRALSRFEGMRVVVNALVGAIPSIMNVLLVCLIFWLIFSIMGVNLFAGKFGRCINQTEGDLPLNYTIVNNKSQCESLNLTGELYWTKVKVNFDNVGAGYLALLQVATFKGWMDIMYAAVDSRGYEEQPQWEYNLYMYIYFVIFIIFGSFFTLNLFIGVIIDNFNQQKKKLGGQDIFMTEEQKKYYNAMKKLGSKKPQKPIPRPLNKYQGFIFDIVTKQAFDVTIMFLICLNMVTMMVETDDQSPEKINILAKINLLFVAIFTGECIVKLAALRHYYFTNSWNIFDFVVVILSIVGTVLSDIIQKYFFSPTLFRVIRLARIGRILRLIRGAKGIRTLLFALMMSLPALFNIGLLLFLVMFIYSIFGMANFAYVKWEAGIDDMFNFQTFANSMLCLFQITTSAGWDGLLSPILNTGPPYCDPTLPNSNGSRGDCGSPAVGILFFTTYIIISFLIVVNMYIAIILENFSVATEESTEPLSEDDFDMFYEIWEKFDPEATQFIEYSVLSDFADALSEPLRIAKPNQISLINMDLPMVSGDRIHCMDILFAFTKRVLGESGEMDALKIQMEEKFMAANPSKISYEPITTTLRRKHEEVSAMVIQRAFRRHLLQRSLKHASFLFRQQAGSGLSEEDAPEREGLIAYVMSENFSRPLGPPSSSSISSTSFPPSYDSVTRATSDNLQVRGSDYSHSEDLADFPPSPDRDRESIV
Data set [4] deals with capsaicin-induced action potential firing in rat DRG neurons. The data set is described as follows: Multi-electrode array (MEA), capsaicin-induced action potential firing in rat DRG neurons. In kind it is cell-based. Particulars: cultured rat DRG neurons, 25 nM capsaicin (EC80) co-applied, 37°C, six replicate wells, read-out: IC50 for block of capsaicin-induced action potential firing. As for the experimental part: Action potentials of cultured postnatal day 2 rat DRG neurons (Lonza, Walkersville, MD) were detected using the Maestro multi-well plate-based MEA system (Axion Biosystems, Atlanta, GA). A 48-well MEA plate containing 16 electrodes/well was pre-coated with 10μL 0.1% PEI (Sigma-Aldrich, St. Louis, MO) in borate buffer (50mM boric acid (Fisher Scientific, Waltham, MA), 12mM sodium tetraborate (Sigma-Aldrich), pH 8.4). The plate was incubated at 37°C for 2h, washed 3-times with 200μL sterile ddH2O and then air dried. Next, 10μL of 20μg/mL laminin (Sigma) in Primary Neural Basal Medium (PNBM) (Lonza) was spotted over the PEI-treated electrode surface and incubated for 2h at 37°C. Laminin was removed and immediately replaced with 10μL/well of 7x10^6 cells/mL rat DRGs in PNBM. […] Baseline spontaneous firing was recorded for approximately 1 min. Twenty-five μL of PNBM, 325nM capsaicin (MP Biomedicals, 25nM final, EC80) in PNBM, or 325nM capsaicin plus test compound was then added, and action potentials were continuously recorded for another 2 min with six replicate wells used per condition. MEA data were analyzed using Axion Integrated Studio AxIS2.1 (Axion Biosystems) and GraphPad Prism version 7.02 for Windows (GraphPad Software, La Jolla, CA). […]

The target of data set [5] is T2, human NaV1.5. The data set is described as follows: in vitro. It is filed as cell-based. On the procedure: as §1
(§2) Fig 5 Selectivity of AM-8145 for human NaV channels in heterologous cells and native NaV currents in mDRG neurons. A. Concentration response curves for TTX-S channels including NaV1.1-NaV1.4, NaV1.6-NaV1.7 and mDRG TTX-S. IC50 values with fold-selectivity compared to NaV1.7 are listed in parenthesis. AM-8145 was 30- to 120-fold selective for NaV1.7 over NaV1.1-NaV1.4 and NaV1.6. B. Concentration response curves for TTX-R channels including NaV1.5, NaV1.8 and mDRG TTX-R. AM-8145 was over 1,700-fold selective for NaV1.7 over NaV1.5, NaV1.8 and mDRG TTX-R. Curves in A and B were derived from whole cell patch clamp experiments. Data are presented as mean ± SEM with n = 2–4 cells per data point. C. Representative current traces for TTX-S channels before (black) and after (red) 10 nM AM-8145 addition. […]

The target in the next data set is wild-type NaV1.5 (Homo sapiens, UniProt Q14524). The data set is described as follows: IWQ chimera mapping, wild-type NaV1.5. In kind it is cell-based. The conditions noted are these: IWQ platform. Also noted: expressed in transfected cells; host or cells: BacMam transduced U2-OS cells. As for the experimental part:
as §1
(§3) Given the lack of robust bioactivity of AM-8145 on NaV1.5, we evaluated AM-8145 functional block on a battery of human NaV1.7-NaV1.5 chimeric channels, in which individual voltage sensor domains (transmembrane domains S1-S4 of domains I-IV) or the entire pore domain (transmembrane domains S5-S6 of domains I-IV) of NaV1.7 were inserted into the NaV1.5 backbone.
(§4) Fig 4 AM-8145 maps to the second voltage sensor domain on hNaV1.7. Potency of AM-8145 inhibition of wild-type NaV1.7, wild-type NaV1.5, or chimeric NaV1.7/NaV1.5 channels (red illustrates NaV1.7 sequence and gray illustrates NaV1.5 sequence) on the IWQ platform (mean ± SEM). D = “Domain”; S = “Sensor” corresponding to transmembrane segments 1–4; P = “Pore” corresponding to transmembrane segments 5–6. […]

A further data set has as its target human NaV1.2 (Homo sapiens, UniProt Q99250). The experiment in a line: Manual whole cell patch clamp, human NaV1.2. In kind it is cell-based. Particulars: 20% channel inactivation, n = 2–4 cells per data point. As for the experimental part: as §1, §2
Data set [6] concerns NaV1.7/NaV1.5 chimera DIVS (fourth NaV1.7 voltage-sensor domain in NaV1.5 backbone). The experiment in a line: IWQ chimera mapping, chimera DIVS. In kind it is cell-based, human. Particulars: IWQ platform; BacMam transduced U2-OS cells. On the procedure: as §1, §3, §4
For another data set, the target named is human NaV1.7 (Homo sapiens, UniProt Q15858). The experiment in a line: Manual whole cell patch clamp, human NaV1.7. It is filed as cell-based.
For data set [7], the system named is NaV1.7/NaV1.5 chimera DIS (first NaV1.7 voltage-sensor domain in NaV1.5 backbone). The experiment in a line: IWQ chimera mapping, chimera DIS. It is filed as cell-based, human. Particulars: IWQ platform; BacMam transduced U2-OS cells. On the procedure:
as §1, §3, §4

The target of another data set is T3, wild-type NaV1.7 (Homo sapiens, UniProt Q15858).
T3 construct: expressed in transfected cells; host or cells: BacMam transduced U2-OS cells
The experiment in a line: IWQ chimera mapping, wild-type NaV1.7. It is filed as cell-based. Particulars: IWQ platform; mean ± SEM. On the procedure:
as §1, §3, §4

Data set [8] concerns NaV1.7/NaV1.5 chimera DIIIS (third NaV1.7 voltage-sensor domain in NaV1.5 backbone). The experiment in a line: IWQ chimera mapping, chimera DIIIS. Particulars: IWQ platform; BacMam transduced U2-OS cells. It is filed as cell-based, human. As for the experimental part:
as §1, §3, §4

Data set [9] has as its target T4, native TTX-R NaV1.8 channels in mouse DRG neurons (Mus musculus, UniProt Q6QIY3).
T4 construct: endogenous in cells; host or cells: dissociated mouse DRG neurons
The data set is described as follows: Manual whole cell patch clamp, native TTX-R NaV channels in mouse DRG neurons. It is filed as cell-based. The conditions noted are these: 20% channel inactivation. On the procedure: as §1, §2

A further data set has as its target T5, human NaV1.8 (Homo sapiens, UniProt Q9Y5Y9).
T5 construct: expressed in transfected cells
The experiment in a line: Manual whole cell patch clamp, human NaV1.8. It is filed as cell-based. Particulars: 20% channel inactivation. On the procedure:
as §1, §2

Data set [10] addresses T1, human NaV1.4. The data set is described as follows: Manual whole cell patch clamp, human NaV1.4. It is filed as cell-based. Particulars: 20% channel inactivation, n = 2–4 cells per data point. On the procedure: as §1, §2

The structures appear in SMILES notation.

T1 sequence (P35499 whole entry): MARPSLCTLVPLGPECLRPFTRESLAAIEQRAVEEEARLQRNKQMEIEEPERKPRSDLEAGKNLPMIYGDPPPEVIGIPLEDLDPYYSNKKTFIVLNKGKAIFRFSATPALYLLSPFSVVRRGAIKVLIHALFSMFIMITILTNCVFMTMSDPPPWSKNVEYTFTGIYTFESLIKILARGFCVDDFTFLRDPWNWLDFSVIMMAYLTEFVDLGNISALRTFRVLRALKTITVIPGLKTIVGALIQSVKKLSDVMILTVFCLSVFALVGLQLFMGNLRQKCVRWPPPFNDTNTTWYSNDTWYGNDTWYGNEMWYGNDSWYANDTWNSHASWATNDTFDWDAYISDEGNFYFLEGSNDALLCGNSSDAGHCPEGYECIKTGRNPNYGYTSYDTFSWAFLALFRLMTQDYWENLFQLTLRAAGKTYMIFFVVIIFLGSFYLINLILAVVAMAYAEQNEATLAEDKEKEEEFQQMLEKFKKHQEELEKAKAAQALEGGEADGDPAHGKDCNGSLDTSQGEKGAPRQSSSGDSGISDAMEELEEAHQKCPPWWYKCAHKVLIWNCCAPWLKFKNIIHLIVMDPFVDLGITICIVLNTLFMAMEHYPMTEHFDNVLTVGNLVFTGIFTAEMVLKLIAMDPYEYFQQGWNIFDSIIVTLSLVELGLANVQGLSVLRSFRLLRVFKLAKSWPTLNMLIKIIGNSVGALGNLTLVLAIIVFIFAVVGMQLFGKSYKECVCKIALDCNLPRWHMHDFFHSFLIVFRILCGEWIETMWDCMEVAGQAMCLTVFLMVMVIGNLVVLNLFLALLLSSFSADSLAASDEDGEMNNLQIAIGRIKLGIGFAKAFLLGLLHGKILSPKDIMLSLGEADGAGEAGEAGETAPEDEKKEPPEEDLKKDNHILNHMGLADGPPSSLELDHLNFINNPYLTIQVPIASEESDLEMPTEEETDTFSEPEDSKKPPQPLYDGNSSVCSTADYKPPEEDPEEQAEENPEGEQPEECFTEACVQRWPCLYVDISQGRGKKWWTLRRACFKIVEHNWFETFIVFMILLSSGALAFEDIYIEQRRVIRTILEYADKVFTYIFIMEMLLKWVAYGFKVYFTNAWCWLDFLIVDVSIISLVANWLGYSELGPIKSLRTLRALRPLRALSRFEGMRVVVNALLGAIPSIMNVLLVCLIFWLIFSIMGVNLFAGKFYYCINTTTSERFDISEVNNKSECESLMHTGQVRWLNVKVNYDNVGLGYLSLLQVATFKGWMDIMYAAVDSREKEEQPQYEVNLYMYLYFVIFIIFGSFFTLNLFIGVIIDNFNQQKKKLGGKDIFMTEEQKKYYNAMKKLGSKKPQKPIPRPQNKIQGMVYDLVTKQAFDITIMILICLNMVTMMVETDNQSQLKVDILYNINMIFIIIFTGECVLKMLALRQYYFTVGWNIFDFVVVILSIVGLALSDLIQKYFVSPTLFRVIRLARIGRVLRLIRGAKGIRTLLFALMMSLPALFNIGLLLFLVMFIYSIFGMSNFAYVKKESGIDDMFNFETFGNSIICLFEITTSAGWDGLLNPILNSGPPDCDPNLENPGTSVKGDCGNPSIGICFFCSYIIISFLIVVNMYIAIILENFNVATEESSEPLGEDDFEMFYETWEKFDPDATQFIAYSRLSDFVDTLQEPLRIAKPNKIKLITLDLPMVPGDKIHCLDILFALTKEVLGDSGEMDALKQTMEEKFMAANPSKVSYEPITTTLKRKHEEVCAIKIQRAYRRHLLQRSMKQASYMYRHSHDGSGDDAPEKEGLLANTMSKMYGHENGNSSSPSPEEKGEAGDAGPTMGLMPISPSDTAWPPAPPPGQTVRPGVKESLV

For `C#CC[C@@H]1NC(=O)[C@@H]2CSSC[C@H](NC(=O)[C@H](Cc3ccc(O)cc3)NC(=O)[C@@H](N)CC#N)C(=O)N[C@@H](CCC(N)=O)C(=O)N[C@@H](CCCCN)C(=O)N[C@@H](Cc3c[nH]c4ccccc34)C(=O)N[C@@H](CCCC)C(=O)N[C@@H](Cc3c[nH]c4ccccc34)C(=O)N[C@@H]([C@@H](C)O)C(=O)N[C@H]3CSSC[C@H](NC(=O)[C@H](CCCNC(=N)N)NC(=O)[C@H](CC(C)C)NC(=O)CNC1=O)C(=O)N[C@@H](CCCCN)C(=O)N[C@@H](CC(C)C)C(=O)N[C@@H](Cc1c[nH]c4ccccc14)C(=O)N[C@H](C(=O)N[C@@H](CCCNC(=N)N)C(=O)N[C@@H](CCCCN)C(=O)N[C@@H](CCC(=O)O)C(=O)N[C@H](C(N)=O)[C@@H](C)CC)CSSC[C@H](NC(=O)[C@H](C)NC(=O)[C@H](CCCNC(=N)N)NC(=O)[C@H](CCCCN)NC(=O)[C@H](CO)NC(=O)[C@H](CC(=O)O)NC3=O)C(=O)N2` [AM-0422, CyA-[Nle6;Pra17;Glu28]JzTx-V(1–29)], the IC50 came to 103 nM against human NaV1.4 [1], 880 nM in [2], 966 nM against human NaV1.5 [3] (human) and 21.1 ± 5.7 nM in data set [4].
Take `C#CC[C@H](N)C(=O)N[C@@H](Cc1ccc(O)cc1)C(=O)N[C@H]1CSSC[C@@H]2NC(=O)[C@@H]3CSSC[C@@H](C(=O)N[C@@H](CCCNC(=N)N)C(=O)N[C@@H](CCCCN)C(=O)N[C@@H](CCC(=O)O)C(=O)N[C@H](C(N)=O)[C@@H](C)CC)NC(=O)[C@H](Cc4c[nH]c5ccccc45)NC(=O)[C@H](CC(C)C)NC(=O)[C@H](CCCCN)NC(=O)[C@H](CSSC[C@H](NC(=O)[C@H]([C@@H](C)O)NC(=O)[C@H](Cc4c[nH]c5ccccc45)NC(=O)[C@H](CCCC)NC(=O)[C@H](Cc4c[nH]c5ccccc45)NC(=O)[C@H](CCCCN)NC(=O)[C@H](CCC(N)=O)NC1=O)C(=O)N[C@@H](CC(=O)O)C(=O)N[C@@H](CO)C(=O)N[C@@H](CCCCN)C(=O)N[C@@H](CCCNC(=N)N)C(=O)N[C@@H](C)C(=O)N3)NC(=O)[C@H](CCCNC(=N)N)NC(=O)[C@H](CC(C)C)NC(=O)CNC(=O)[C@H](CCC(=O)O)NC2=O` [AM-8145, Pra-[Nle6;Glu28]JzTx-V(1–29)]: the selectivity ratio was > 1700 on human NaV1.5 [5] (manual patch clamp IC50 ratio, read-out: fold-selectivity compared to NaV1.7, NaV1.5) and 6000 on human NaV1.5 [3] (human, PX platform IC50 ratio, read-out: selectivity for NaV1.7 over NaV1.5). The IC50 on human NaV1.5 [5] (manual patch clamp, 20% channel inactivation) is > 1000 nM; against wild-type NaV1.5, > 3 µM; against human NaV1.4 [1] it was 145 nM; on human NaV1.2, 43.5 nM; in [6] it was > 3000 nM; against human NaV1.7 (manual patch clamp, voltage protocol with 20% of channels inactivated) it was 0.58 nM. For the same molecule, the IC50 is > 3000 nM in data set [7]; 50 ± 10 nM on wild-type NaV1.7; > 3000 nM in [8]; > 1000 nM in data set [9]; 3000 nM on human NaV1.5 [3]; > 1000 nM at human NaV1.8. The molecule also displayed an IC50 on human NaV1.4 [10] of 71 nM. On human NaV1.4 [1] (PX platform IC50 ratio), the “selectivity for NaV1.7 over NaV1.4” value was 300 fold. The “selectivity over human TTX-R channels (NaV1.5, NaV1.8) and native TTX-R channels in mouse DRG neurons” value on human NaV1.7 (manual patch clamp IC50 ratios) is recorded as “over 1,000 fold”. The “selectivity over other human TTX-S Nav channels (NaV1.1, NaV1.2, NaV1.3, NaV1.4, NaV1.6)” value at human NaV1.7 (manual patch clamp IC50 ratios) was 30- to 120 fold.
